As a reminder, the EC50 is the midpoint of the concentration-response curve.

The text below walks through data of article PMC10638401, “Mannich-type modifications of (−)-cannabidiol and (−)-cannabigerol leading to new, bioactive derivatives” (Scientific Reports, 2023).

Series [1] deals with multidrug-resistant Acinetobacter baumannii. As to the kind of experiment: Antibacterial effect, broth micro dilution.
Series [2] deals with SARS-CoV-2. As to the kind of experiment: SARS-CoV-2 cytopathic effect (CPE) inhibition assay in Vero E6 cells (XTT). Format: cell-based. To be noted: Vero E6 cells, 3 days post-infection, XTT. Here is the method:
(§1) CBD and CBG derivatives were further tested for their ability to inhibit SARS-CoV-2 replication in Vero E6 cells. Initially, the inhibition of virus-induced cytopathic effect was measured by addition of twofold serial dilutions of each derivative to the cells, followed by the infection with SARS-CoV-2 and determination of the cell viability 3 days post-infection by XTT assay. Concurrently, the cytotoxicity of each compound was assessed from identical dilutions in uninfected Vero E6 cells. To confirm anti-SARS-CoV-2 activity in the CPE inhibition assay, selected compounds were tested in immunofluorescence assay, where inhibition of SARS-CoV-2 replication was monitored as reduction in nucleoprotein expression using fluorescence microscope. […] Among the CBG derivatives, we can find quite cytotoxic and non-cytotoxic derivatives as well.
(§2) For CPE-based assay, two-fold fold serial dilutions of compounds from 100 µM were added in triplicate in a 384-well plate with 5000 Vero E6 cells in DMEM medium with 2% FBS, 100 U of penicillin/ml and 100 µg of streptomycin/ml (all Merck). After 1 h incubation SARS-CoV-2 (strain hCoV-19/Czech Republic/NRL_6632_2/2020) was added at multiplicity of infection […]. Following three days incubation at 37 °C in 5% CO2 the cell viability was determined by addition of XTT solution (Sigma-Aldrich) for 4 h and the absorbance was measured using EnVision plate reader (Perkin Elmer). Drug concentrations required to reduce viral cytopathic effect by 50% (EC50) were calculated using nonlinear regression from plots of percentage cell viability versus log10 drug concentration using GraphPad Prism (version 9.0.0, GraphPad Software, LLC). For immunofluorescence assay, two-fold fold serial dilutions of compounds from 100 µM were added in triplicate in 96-well plate with 15,000 Vero E6 cells plated day before in the same medium as above. After 1 h incubation, SARS-CoV-2 was added at multiplicity of infection 0.05 IU/cell. After three days of incubation, cells were fixed with 4% paraformaldehyde, permeabilized with 0.2% Triton X100 (both Merck), washed, incubated with anti-SARS-CoV-2antibody (mouse monoclonal antibody detecting SARS-CoV-2 nucleoprotein) for 2 h at room temperature. Followed by 1.5 h incubation with Cy3-labeled donkey anti-mouse IgG (Jackson ImmunoResearch Europe) and documented using fluorescence microscope with camera (Olympus). Images were processed in ImageJ software (NIH) and compound concentrations required to reduce fluorescence by 50% (EC50s) were calculated from plots of percentage of fluorescent cells versus log10 drug concentration using nonlinear regression analysis as above. Cytotoxicity was evaluated by incubating with the same two-fold serial dilutions of each compound as above with Vero E6 cells in 384-well plate.

Series [3] has as its system MRSA (Methicillin Resistant Staphylococcus aureus). As to the kind of experiment: MIC, broth micro dilution.
Protocol: (§6) According to CLSI guideline the Minimal Inhibitory Concentrations (MICs) of the prepared compounds were determined with the broth micro dilution method. After an overnight growth on 5% bovine blood agar plates at 35 °C bacterial strains were suspended in physiological saline in order to reach the density of 0.5 McFarland for inoculation. Stock solutions containing different concentrations of the substances were prepared in DMSO and H2O (1:1). These were twofold serially diluted from 256 to 0.5 mg/l in Mueller–Hinton broth, and 100 ml of each dilution was inoculated with 10 ml of each bacterial suspension.
A further series can be described thus: in vitro. The note with it: African green monkey.
Series [4] relates to SZ95 sebocytes. As to the kind of experiment: Viability MTT-assay on sebocytes, 48 h. Format: cell-based, human. The note with it: 30 μM. The method, then:
(§3) Human immortalized SZ95 sebocytes, originated from human facial sebaceous glands[50] were provided by prof. Christos C. Zouboulis, and were cultured in Sebomed® Basal Medium (Cat. No. F8205; Sigma-Aldrich) supplemented with 10% FBS (Gibco-Thermo Fisher Scientific), 1 mM CaCl2 (Cat. No. C7902; Sigma-Aldrich), 5 ng/ml human epidermal growth factor (Cat. No. E9644; Sigma-Aldrich), and MycoZap™ Plus-CL (1:500; Lonza). The medium was changed every other day, and cells were subcultured at 60–70% confluence.
The viability of HaCaT keratinocytes and SZ95 sebocytes was determined by MTT-assay[58] (Cat. No. M5655; Sigma-Aldrich) measuring the conversion of the tetrazolium salt to formazan by mitochondrial dehydrogenases. Cells were plated in 96-well plates (20,000 cells/well), and were treated as indicated. Cells were then incubated with 0.5 mg/ml MTT reagent for 3 h, and concentration of formazan crystals (as an indicator of number of viable cells) was determined colorimetrically at 565 nm by using FlexStation 3 multi-mode microplate reader (Molecular Devices). Results were expressed as percentage of vehicle-treated control regarded as 100%.

The subject of series [5] is Enterococcus faecalis 29 212. As to the kind of experiment: MIC, broth micro dilution.
Protocol: as §6
The test system of series [6] is Klebsiella pneumoniae carbapenemase-producing bacteria. Put plainly: Antibacterial effect, broth micro dilution.
Protocol: as §6
The next series deals with A2780 cells. As to the kind of experiment: Antiproliferative MTT assay, 72 h. It counts as cell-based, human. To be noted: Homo sapiens, A2780, 30 μM, read-out: inhibition of the proliferation. From the text: (§4) Human adherent cancer cell lines A2780, MDA-MB-231 and MCF-7 were obtained from ECACC (European Collection of Cell Cultures, Salisbury, UK; Cat. No.93112519, 92020424, 86012803, respectively). SiHa cell line was obtained from ATCC (American Tissue Culture Collection, Manassas, Virginia, USA; Cat. No. HTB-35). All cell lines used for antiproliferative assay were maintained in Eagle's Minimum Essential Medium (EMEM) completed with 10% fetal bovine serum (FBS), 1% non-essential amino acid solution, and 1% penicillin, streptomycin, and amphotericin B mixture under cell culture conditions described before. All the utilized media and supplements were purchased from Lonza Group Ltd. (Basel, Switzerland).
(§5) The antiproliferative actions of the prepared molecules were determined by the same assay against a panel of adherent human cancer cell lines containing cervical (SiHa), ovarian (A2780) and breast (MCF7, MDA-MB-231) cell lines. Cells were plated onto 96-well microplates (5000 cells/well) and after an overnight incubation treated with two concentrations (10 or 30 μM) of the test substances for 72 h under cell culture conditions. Subsequently, MTT (5 mg/ml in phosphate buffer) was added to the wells, followed by incubation for 4 h. The supernatant was removed, the formazan crystals were then dissolved in 100 µl DMSO. Finally, absorbance values were determined by a microplate reader (BMG Labtech, Ortenberg, Germany) at 545 nm. Two independent measurements were performed with five parallel wells. Results were expressed as percentage of cell proliferation inhibition compared to non-treated control samples regarded as 0%.

For a further series, the system named is MCF7 cells. Put plainly: Antiproliferative MTT assay, 72 h. It counts as cell-based, human.
Source text: as §4, §5

In series [7] the test system is Staphylococcus epidermidis mecA. As to the kind of experiment: MIC, broth micro dilution.
Protocol: as §6
The subject of series [8] is Staphylococcus epidermidis biofilm forming. Put plainly: MIC, broth micro dilution.
Protocol: as §6
Another series concerns Pseudomonas aeruginosa. As to the kind of experiment: Antibacterial effect, broth micro dilution. It counts as cell-based.
In another series the test system is Escherichia coli. Put plainly: Antibacterial effect, broth micro dilution. Format: cell-based.
Series [9] deals with Enterococcus faecalis 15 376 VanA. As to the kind of experiment: MIC, broth micro dilution.
In series [10] the test system is MSSA (Methicillin Sensitive Staphylococcus aureus). As to the kind of experiment: MIC, broth micro dilution.
Series [11] deals with Enterococcus faecalis 51299 VanB. Put plainly: MIC, broth micro dilution.
Protocol: as §6
Another series concerns Bacillus subtilis. As to the kind of experiment: MIC, broth micro dilution.
The test system of series [12] is SZ95 sebocytes. Put plainly: Nile Red-assay, spontaneous sebaceous lipogenesis. It counts as cell-based, human. The note with it: applied alone, 48 h.
The test system of series [13] is SARS-CoV-2. Put plainly: SARS-CoV-2 immunofluorescence assay (nucleoprotein expression) in Vero E6 cells. It counts as cell-based. The note with it: three days. The method, then:
as §1, §2

In the next series the test system is Vero E6 cells. To be noted: uninfected Vero E6 cells, three days, XTT. Background: Tetrazolium assays rely on reduction of a dye to a coloured formazan, in cell work by metabolically active cells.
Series [14] deals with SZ95 sebocytes. As to the kind of experiment: Nile Red-assay, arachidonic acid-induced lipogenesis. To be noted: 50 μM arachidonic acid, 48 h. Format: cell-based, human. The method, then:
as §3
For quantitative measurement of sebaceous (neutral) lipid content, SZ95 sebocytes (20,000 cells/well) were cultured in 96-well “black well/clear bottom” plates (Cat. No. 655090; Greiner Bio-One, Frickenhausen, Germany), and were treated with compounds in the presence or absence of arachidonic acid (AA; Cat. No. 90010; Cayman Chemical Company, Ann Arbor, MI, USA) or its vehicle (absolute ethanol) as indicated. Subsequently, supernatants were discarded, cells were washed twice with phosphate-buffered saline (PBS; 115 mM NaCl, 20 mM Na2HPO4, pH 7.4; all from Sigma-Aldrich), and 100 µl of a 1 µg/ml Nile Red (Cat. No. N3013; Sigma-Aldrich) solution in PBS was added to each well. The plates were then incubated at 37 °C for 30 min, and fluorescence was measured on FlexStation 3 multimode microplate reader (Molecular Devices, San Francisco, CA, USA). Results, measured in relative fluorescence units, are expressed as percentage of the vehicle (absolute ethanol; Cat. No. 20821.296; VWR International)-treated control regarded as 100%, using 485 nm excitation and 565 nm emission wavelengths.

Converted amounts (≈) assume the structure as drawn. Where two headings read alike, the source gives them in different places. A value given as a limit tells only on which side of the number the result lay.

Protocol for Bacillus subtilis: as §6

Consider `CCCCCc1cc(O)c(C/C=C(\C)CCC=C(C)C)c(O)c1` [Compound 2, (−)-cannabigerol], for which the “antibacterial effect (no effect up to)” value (in [1]; in series [6]; with Pseudomonas aeruginosa; in the series on Escherichia coli) was over 256 µg/mL throughout. Also, the EC50 with SARS-CoV-2 [2] (Severe acute respiratory syndrome coronavirus 2, Vero C1008, 72 h) was over 11 µM. In addition, the MIC came out at 4 µg/mL (≈ 12.6 µM) in [3] (Staphylococcus aureus); 4 µg/mL (≈ 12.6 µM) in series [5] (Enterococcus faecalis, 29212); 8 µg/mL (≈ 25.3 µM) in series [7] (Staphylococcus epidermidis); 8 µg/mL (≈ 25.3 µM) in series [8] (Staphylococcus epidermidis); 4 µg/mL (≈ 12.6 µM) in series [9] (Enterococcus faecalis, 15376VANA); 4 µg/mL (≈ 12.6 µM) in series [10] (Staphylococcus aureus). Further, the MIC in series [11] (Enterococcus faecalis, 51299VANB) is 4 µg/mL (≈ 12.6 µM); in the series with Bacillus subtilis it was 2 µg/mL (≈ 6.32 µM). In addition, the CC50 in “in vitro” was about 11 µM. Further, the “viability (MTT signal intensity)” value with SZ95 sebocytes [4] is given as “tended to suppress viability”. The inhibition at 30 µM was over 90% in the series on A2780 cells and over 90% in the series with MCF7 cells (Homo sapiens, MCF7, 30 μM, read-out: inhibition of the proliferation).
Take `C=C(C)[C@@H]1CCC(C)=C[C@H]1c1c(O)cc(CCCCC)c2c1OCN(CCCC)C2` [Compound 8]: the EC50 with SARS-CoV-2 [2] turned out to be 21 ± 3.7 µM; with SARS-CoV-2 [13], 31 ± 1.1 µM. The MIC is over 256 µg/mL in [3]; 2 µg/mL (≈ 4.86 µM) in series [5] (Enterococcus faecalis 29 212); over 256 µg/mL in series [7] (Staphylococcus epidermidis mecA); over 256 µg/mL in series [8] (Staphylococcus epidermidis biofilm forming); over 256 µg/mL in [9] (Enterococcus faecalis 15 376 VanA); over 256 µg/mL in series [10]. In addition, the MIC in series [11] (Enterococcus faecalis 51299 VanB) is 2 µg/mL (≈ 4.86 µM); in the series with Bacillus subtilis, over 256 µg/mL. For the same compound, in the series on SZ95 sebocytes [4], the “viability (MTT signal intensity)” value is reported as “cytotoxic effects”. In addition, the “inhibition of the proliferation (in words)” value in the series on MCF7 cells (MCF7, 10 μM) is given as “much more potent than the parent CBD”. Further, the “antiproliferative activity (in words)” value with MCF7 cells (MCF7, 10 and 30 μM) is listed as “more sensitive”. Besides, the “promotion of spontaneous sebaceous lipogenesis, significance” value with SZ95 sebocytes [12] (10 and 30 μM) is reported as “statistically significant”. Further, the “spontaneous, homeostatic sebaceous lipogenesis” value in the series on SZ95 sebocytes [12] was “rather promote spontaneous, homeostatic sebaceous lipogenesis”. The CC50 in the series on Vero E6 cells is over 100 µM. Besides, the “effect on the lipogenic effect of arachidonic acid (AA)” value in the series on SZ95 sebocytes [14] is recorded as “mimic this lipostatic effect”.
